Where “and” joins values, the source holds several entries; their conditions need not be identical. Equal entries are not always repeated.
System: BDF1 mice, Adenocarcinoma 755 s.c., tumor weight T/C
Experiment: NCI In Vivo Anticancer Drug Screen. Data for tumor model Adenocarcinoma 755 (subcutaneous) in B6D2F1 (BDF1) mice
Settings: endpoint: mean tumor weight, schedule: Q01DX011 (ip), higher = larger tumour
Procedure: The antitumor activity of compounds was measured in mice bearing transplantable tumors. Survival or tumor size were measured and the results are expressed as the measurement made in the treated group (T) divided by the measurement made in the vehicle treated control group (C). The tumor model used in this assay is Adenocarcinoma 755 (subcutaneous) in B6D2F1 (BDF1) mice

[1] = dose: 60.0 mg/kg/injection, vehicle: carboxymethylcellulose (CMC)
[2] = dose: 120.0 mg/kg/injection, vehicle: carboxymethylcellulose (CMC)
[3] = dose: 240.0 mg/kg/injection, vehicle: carboxymethylcellulose (CMC)
[4] = dose: 100.0 mg/kg/injection, vehicle: saline
[5] = dose: 25.0 mg/kg/injection, vehicle: other

## Nc1nc(I)c2ncn(C3OC(CO)C(O)C3O)c2n1 (stereo not given)
dose: 30.0 mg/kg/injection, vehicle: saline
  T/C: 113 % of control
dose: 60.0 mg/kg/injection, vehicle: saline
  T/C: 121 % of control
dose: 120.0 mg/kg/injection, vehicle: saline
  T/C: 82 % of control
dose: 240.0 mg/kg/injection, vehicle: saline
  T/C: 62 % of control
dose: 400.0 mg/kg/injection, vehicle: saline
  T/C: 9 % of control
dose: 600.0 mg/kg/injection, vehicle: saline
  T/C: 47 % of control

## O=c1[nH]cnc2nc(S(=O)(=O)F)[nH]c12
[1]
  T/C: 117 % of control
[2]
  T/C: 121 % of control
[3]
  T/C: 115 % of control

## CSc1nc2c(=O)[nH]c(N)nc2n1C1OC(CO)C(O)C1O (stereo not given)
dose: 30.0 mg/kg/injection, vehicle: carboxymethylcellulose (CMC)
  T/C: 88 % of control
[1]
  T/C: 98 % of control
[2]
  T/C: 91 % of control
[3]
  T/C: 47 % of control

## CS(=O)(=O)OCCC(=O)NCCCCNC(=O)CCOS(C)(=O)=O
dose: 56.0 mg/kg/injection, vehicle: carboxymethylcellulose (CMC)
  T/C: 66 % of control
dose: 56.0 mg/kg/injection, vehicle: methylcellulose (MC)
  T/C: 85 % of control
dose: 113.0 mg/kg/injection, vehicle: carboxymethylcellulose (CMC)
  T/C: 48 % of control
dose: 113.0 mg/kg/injection, vehicle: methylcellulose (MC)
  T/C: 31 % of control
dose: 225.0 mg/kg/injection, vehicle: carboxymethylcellulose (CMC)
  T/C: 12 % of control
dose: 225.0 mg/kg/injection, vehicle: methylcellulose (MC)
  T/C: 8 % of control
dose: 450.0 mg/kg/injection, vehicle: carboxymethylcellulose (CMC)
  T/C: 7 % of control

## O=C(Nc1ncnc2nc[nH]c12)C(Cl)Cl
[4]
  T/C: 77 % of control

## O=[N+]([O-])c1cc([N+](=O)[O-])c(NN(c2ccccc2)c2ccccc2)c([N+](=O)[O-])c1
[5]
  T/C: 86 % of control

## Nc1nc(SCc2ccccc2)c2ncn(C3CCCC3)c2n1
dose: 4.6 mg/kg/injection, vehicle: carboxymethylcellulose (CMC)
  T/C: 79 % of control
dose: 9.3 mg/kg/injection, vehicle: carboxymethylcellulose (CMC)
  T/C: 70 % of control
dose: 18.7 mg/kg/injection, vehicle: carboxymethylcellulose (CMC)
  T/C: 69 % of control
dose: 37.5 mg/kg/injection, vehicle: carboxymethylcellulose (CMC)
  T/C: 24 % of control
dose: 75.0 mg/kg/injection, vehicle: carboxymethylcellulose (CMC)
  T/C: 11 % of control
dose: 150.0 mg/kg/injection, vehicle: carboxymethylcellulose (CMC)
  T/C: 2 % of control
dose: 300.0 mg/kg/injection, vehicle: carboxymethylcellulose (CMC)
  T/C: 1 % of control
dose: 375.0 mg/kg/injection, vehicle: carboxymethylcellulose (CMC)
  T/C: 33 % of control

## [N-]=[N+]=[N-]
dose: 1.06 mg/kg/injection, vehicle: carboxymethylcellulose (CMC)
  T/C: 114 % of control
dose: 1.55 mg/kg/injection, vehicle: carboxymethylcellulose (CMC)
  T/C: 75 % of control
dose: 2.13 mg/kg/injection, vehicle: carboxymethylcellulose (CMC)
  T/C: 61 % of control
dose: 3.1 mg/kg/injection, vehicle: carboxymethylcellulose (CMC)
  T/C: 82 % of control
dose: 4.25 mg/kg/injection, vehicle: carboxymethylcellulose (CMC)
  T/C: 80 % of control
dose: 6.2 mg/kg/injection, vehicle: carboxymethylcellulose (CMC)
  T/C: 57 % of control
dose: 8.5 mg/kg/injection, vehicle: carboxymethylcellulose (CMC)
  T/C: 80 % of control
dose: 12.4 mg/kg/injection, vehicle: carboxymethylcellulose (CMC)
  T/C: 80 % of control

## Cc1ccc(CSc2nc(N)nc3nc[nH]c23)cc1C
dose: 31.25 mg/kg/injection, vehicle: methylcellulose (MC)
  T/C: 37 % of control
dose: 62.5 mg/kg/injection, vehicle: methylcellulose (MC)
  T/C: 33 % of control
dose: 125.0 mg/kg/injection, vehicle: methylcellulose (MC)
  T/C: 15 % of control
dose: 250.0 mg/kg/injection, vehicle: methylcellulose (MC)
  T/C: 1 % of control and 7 % of control
dose: 350.0 mg/kg/injection, vehicle: methylcellulose (MC)
  T/C: 5 % of control

## COc1ccc2c3c([nH]c2c1)[C@H]1C[C@H]2[C@H](C[C@@H](O)[C@H](OC)[C@H]2CO)CN1CC3
dose: 0.5 mg/kg/injection, vehicle: saline
  T/C: 91 % of control
dose: 1.0 mg/kg/injection, vehicle: saline
  T/C: 95 % of control
dose: 2.0 mg/kg/injection, vehicle: saline
  T/C: 92 % of control

## Nc1cccc2c(=O)[nH][nH]c(=O)c12
dose: 62.5 mg/kg/injection, vehicle: water
  T/C: 71 % of control
dose: 125.0 mg/kg/injection, vehicle: water
  T/C: 82 % of control
dose: 250.0 mg/kg/injection, vehicle: water
  T/C: 59 % of control

## CCSc1ncc(Br)c(Sc2nc(N)nc3nc[nH]c23)n1
dose: 0.5 mg/kg/injection, vehicle: carboxymethylcellulose (CMC)
  T/C: 69 % of control
dose: 0.5 mg/kg/injection, vehicle: methylcellulose (MC)
  T/C: 68 % of control
dose: 1.0 mg/kg/injection, vehicle: carboxymethylcellulose (CMC)
  T/C: 17 % of control and 30 % of control
dose: 1.0 mg/kg/injection, vehicle: methylcellulose (MC)
  T/C: 37 % of control
dose: 1.5 mg/kg/injection, vehicle: carboxymethylcellulose (CMC)
  T/C: 18 % of control
dose: 2.0 mg/kg/injection, vehicle: carboxymethylcellulose (CMC)
  T/C: 57 % of control
dose: 3.0 mg/kg/injection, vehicle: carboxymethylcellulose (CMC)
  T/C: 3 % of control and 5 % of control and 23 % of control
dose: 4.0 mg/kg/injection, vehicle: carboxymethylcellulose (CMC)
  T/C: 2 % of control
dose: 6.0 mg/kg/injection, vehicle: carboxymethylcellulose (CMC)
  T/C: 2 % of control
dose: 8.0 mg/kg/injection, vehicle: carboxymethylcellulose (CMC)
  T/C: 15 % of control
dose: 12.0 mg/kg/injection, vehicle: carboxymethylcellulose (CMC)
  T/C: 3 % of control

## O=C(O)C(=O)O.[U]
dose: 12.5 mg/kg/injection, vehicle: other
  T/C: 73 % of control
dose: 12.5 mg/kg/injection, vehicle: saline
  T/C: 68 % of control
[5]
  T/C: 50 % of control
dose: 25.0 mg/kg/injection, vehicle: saline
  T/C: 39 % of control
dose: 50.0 mg/kg/injection, vehicle: other
  T/C: 49 % of control
dose: 50.0 mg/kg/injection, vehicle: saline
  T/C: 36 % of control
[4]
  T/C: 25 % of control

## c1ccc(N2CCSCC2)cc1
dose: 40.5 mg/kg/injection, vehicle: methylcellulose (MC)
  T/C: 16 % of control and 28 % of control

## CCOC1CCCC(n2cnc3c(=S)nc[nH]c32)O1 (stereo not given)
dose: 4.69 mg/kg/injection, vehicle: methylcellulose (MC)
  T/C: 29 % of control
dose: 9.38 mg/kg/injection, vehicle: methylcellulose (MC)
  T/C: 2 % of control
